According to patent US6537988B2, “Synergistic methods and compositions for treating cancer” (Bristol-Myers Squibb Company, priority 2000, dated 2003):
Values after ≈ are worked out from the molar mass of the structure shown. “Also recorded” adds a separate entry of the source. Where two headings read alike, the source gives them in different places. Blank lines part the entries; values can stand above or below the compound they belong to.

Legend:
[1] = Maximum tolerated dose / regimen in tumor-bearing mice; assay type: in vivo, nude mice
From the text: The maximum tolerated dose (MTD) is defined as the dose level immediately above which excessive toxicity (i.e. more than one death) occurred. […] Activity is described at the OD.

[2] = test system: HCTVM46 human colon carcinoma; test: Multidrug-resistant HCT/VM46 xenograft (FIGS. 13, 14); settings: single agents or Compound 1 followed 24 hr later with Compound 2
Procedure: (§1) Tumor response was determined by measurement of tumors with a caliper twice a week until the tumors reached a predetermined “target” size of 0.5 or 1.0 g. Tumor weights (mg) were estimated from the formula:
(§2) Tumor response end-point was expressed in terms of tumor growth delay (T-C value), defined as the difference in time (days) required for the treated tumors (T) to reach a predetermined target size compared to those of the control group (C).
(§3) A tumor is defined as “cured” when there is no detectable disease at the time of study termination (Day >75 days post-tumor implantation); the interval between study termination and the end of drug treatment always exceeded 10 times the volume doubling time of any particular tumor type.

[3] = test system: HCT-116 human colon carcinoma cells; test: Clonogenic cell colony-formation assay, stationary vs log phase cells; settings: for cytotoxicity against non-proliferating stationary cells: HCT-116, paclitaxel at concentrations as high as 162 nM; for fold less sensitive: cells in exponential growth (Day 2) vs stationary phase (Day 8) / fold more sensitive: cells in exponential growth (Day 2) vs stationary phase (Day 8): HCT-116 in vitro, figure legends
Procedure: (§4) At the end of a 16 h drug exposure, monolayer cell cultures were dissociated by exposing the cells to 0.05% trypsin for 5 min at 37° C. Cells were resuspended in complete media (containing 10% FBS), counted with a Coulter Channelyzer, diluted and plated with 5 replicates per dilution, into plastic tissue culture petri dishes. The cells were incubated in a humidified atmosphere for 10 days at 37° C. Cell colonies were stained with crystal violet and those with >50 cells per colony were scored.

[4] = test system: advanced HCT116 human colon carcinoma; settings: dose 30 mg/kg/inj; IV, Q2D × 5
Procedure: as §1, §2

[5] = test system: A2780 human ovarian cancer cells; test: Colony formation of A2780 cells, CDK inhibitor plus Compound 2; assay type: cell-based; settings: 1.5 μM, 4 hour treatment
[6] = test system: HCT-116 human colon carcinoma cells
Procedure: as §4

[7] = test system: HT-29 human colon carcinoma; test: Advanced HT-29 xenograft, gemcitabine plus Compound 2; assay type: in vivo, nude mice
From the text: The agent primarily kills cells undergoing DNA synthesis (S-phase) and also blocks the progression of cells through the G1/S-phase boundary.

[8] = test system: HCT116 human colon carcinoma; settings: Compound 2 125 mpk 24 h iv infusion; paclitaxel 24 mg/kg iv; alone or combined
Procedure: as §1, §2

[9] = test system: advance HCT116 human colon carcinoma; settings: dose 20 mg/kg/inj, IV, Q7D × 4
Procedure: Paclitaxel was administered IV at 20 mg/kg/inj, Q7D×4.
as §1, §2, §3

[10] = test system: Her-1 activated SAL-2 cancer cell line; assay type: cell-based; settings: 20 hours exposure
Procedure: FIG. 18A: Clonogenic survival of the SAL-2 cell line following exposure to paclitaxel for 20 hours at the indicated concentrations.

[11] = test system: MCF-7 estrogen-dependent human breast carcinoma; test: MCF-7 xenograft, tamoxifen plus Compound 2; assay type: in vivo, nude mice; settings: tamoxifen 40 mpk PO Q2D×14, Compound 2 po 100 mpk qd×10, two courses
Procedure: Tamoxifen was administered PO, Q2D×14.
The majority of human breast cancers require estrogen for growth and tumor progression (estrogen-dependent). […] In order to assess the efficacy of the combined anti-cancer agents of the invention in a human breast cancer model, MCF-7 xenografts were grown in nude mice and treated as described herein.

[12] = IC90 Log / IC90 Stationary, HCT116
[13] = read-out: IC90 Log (converted), log phase (proliferating) HCT116 cells, 16 h drug exposure
[14] = read-out: IC90 Stationary, stationary phase (non-proliferating, Day 8) HCT116 cells, 16 h drug exposure
[15] = read-out: IC90 Log (converted), log phase (proliferating) HCT116 cells
[16] = read-out: IC90 Stationary, stationary phase (non-proliferating) HCT116 cells

Compound: C/C(=C\c1csc(C)n1)[C@@H]1C[C@@H]2O[C@]2(C)CCC[C@H](C)[C@H](O)[C@@H](C)C(=O)C(C)(C)[C@@H](O)CC(=O)N1 (relative stereo) [Compound 1, [1S-[1R*,3R*(E),7R*,10S*,11R*,12R*,16S*]]-7,11-dihydroxy-8,8,10,12,16-pentamethyl-3-[1-methyl-2-(2-methyl-4-thiazolyl)ethenyl]-4-aza-17-oxabicyclo[14.1.0]heptadecane-5,9-dione]
maximum tolerated regimen ([1]; HCTVM46 study FIG. 13, single agents, q4d×3): 15 mg/kg
maximum tolerated regimen ([1]; HCTVM46 study FIG. 14, Compound 1 iv q4d×3, Compound 2 ip q4d×3, single agents): 10 mg/kg
tumor cure [2]: did not induce tumor cure
log cell kill ([2]; maximum tolerated regimens, q4d×3): 1.6 LCK

IC90 Log ([3]; log phase HCT116 cells): >162 μg/ml
IC90 Stationary ([3]; stationary phase HCT116 cells): 4.6 µg/mL (≈ 35.4 µM)
Compound: O=c1[nH]cc(F)c(=O)[nH]1 [5-Fluorouracil, 5-fluorouracil]
cytotoxicity against non-proliferating stationary cells [3]: essentially ineffective
Non-proliferative cells selectivity ratio (fold) [3, 12]: <0.03 fold

Compound: CCc1c2c(nc3ccc(OC(=O)N4CCC(N5CCCCC5)CC4)cc13)-c1cc3c(c(=O)n1C2)COC(=O)[C@]3(O)CC [CPT-11]
MTD ([1]; CPT-11 IV (Q2D × 5), HCT116 study): ~30 mg/kg/inj
Tumor Response CR (%) [4]: 0%
Tumor Response LCK [4]: 1.5
Tumor Response PR (%) [4]: 50%

Compound: CC(O)(CS(=O)(=O)c1ccc(F)cc1)C(=O)Nc1ccc(C#N)c(C(F)(F)F)c1 (centres unmarked) [Casodex®, bicalutamide]
maximum tolerated doses and regimens ([1]; Pca-2b-AI study, Compound 2 po q1D×10, Casodex® po q1D×4): 150 mpk

IC90 [3, 13]: 65000 nM
IC90 [3, 14]: 360 nM
Compound: CCCCS(=O)(=O)N1Cc2cc(C#N)ccc2N(Cc2c[nH]cn2)C[C@H]1Cc1ccccc1 [Compound 3, (R)-4-(butylsulfonyl)-7-cyano-2,3,4,5-tetrahydro-1-(1H-imidazol-4-ylmethyl)-3-(phenylmethyl)-1H-1,4-benzodiazepine]
Non-proliferative cells selectivity ratio (fold) [3, 12]: 181.0 fold

IC90 [3, 13]: 91200 nM
IC90 [3, 14]: 1050 nM
Compound: COCCCS(=O)(=O)N1Cc2cc(C#N)ccc2N(Cc2c[nH]cn2)C[C@H]1Cc1ccccc1 [Compound 4, (R)-4-(3-methoxypropylsulfonyl)-7-cyano-2,3,4,5-tetrahydro-1-(1H-imidazol-4-ylmethyl)-3-(phenylmethyl)-1H-1,4-benzodiazepine]
fold less sensitive: cells in exponential growth (Day 2) vs stationary phase (Day 8) [3]: ~91.2 fold
Non-proliferative cells selectivity ratio (fold) [3, 12]: 86.9 fold

IC90 [3, 13]: 84700 nM
IC90 [3, 14]: 1080 nM
Compound: N#Cc1ccc2c(c1)CN(S(=O)(=O)c1ccc(Br)s1)[C@H](Cc1ccccc1)CN2Cc1c[nH]cn1 [Compound 5, (R)-4-[(5-bromo-2-thienyl)sulfonyl]-7-cyano-2,3,4,5-tetrahydro-1-(1H-imidazol-4-ylmethyl)-3-(phenylmethyl)-1H-1,4-benzodiazepine]
Non-proliferative cells selectivity ratio (fold) [3, 12]: 78.4 fold

IC90 [3, 13]: 66800 nM
IC90 [3, 14]: 1040 nM
Compound: N#Cc1ccc2c(c1)CN(S(=O)(=O)N1CCCCC1)[C@H](Cc1ccccc1)CN2Cc1c[nH]cn1 [Compound 6, (R)-7-cyano-2,3,4,5-tetrahydro-1-(1H-imidazol-4-ylmethyl)-3-(phenylmethyl)-4-(1-piperidinylsulfonyl)-1H-1,4-benzodiazepine]
fold less sensitive: cells in exponential growth (Day 2) vs stationary phase (Day 8) [3]: ~67 fold
Non-proliferative cells selectivity ratio (fold) [3, 12]: 64.2 fold

IC90 [3, 13]: 26000 nM
IC90 [3, 14]: 9600 nM
Compound: COc1ccc(S(=O)(=O)N2Cc3cc(C#N)ccc3N(Cc3c[nH]cn3)C[C@H]2Cc2ccccc2)cc1 [Compound 7, (R)-7-cyano-2,3,4,5-tetrahydro-1-(1H-imidazol-4-ylmethyl)-4-[(4-methoxyphenyl)sulfonyl]-3-(phenylmethyl)-1H-1,4-benzodiazepine]
Non-proliferative cells selectivity ratio (fold) [3, 12]: 2.7 fold

Compound: CC(C)(C)c1cnc(CSc2cnc(NC(=O)C3CCNCC3)s2)o1 [Compound 9, N-[5-[[[5-(1,1-dimethylethyl)-2-oxazolyl]methyl]thio]-2-thiazolyl]-4-piperidinecarboxamide]
effect of single agent [5]: no effect dose

Compound: C/C(=C\c1csc(C)n1)[C@@H]1C[C@@H]2O[C@]2(C)CCC[C@H](C)[C@H](O)[C@@H](C)C(=O)C(C)(C)[C@@H](O)CC(=O)O1 [Epothilone B, epothilone B]
fold more sensitive: cells in exponential growth (Day 2) vs stationary phase (Day 8) [3]: > 83 fold
Non-proliferative cells selectivity ratio (fold) [3, 12]: <0.01 fold
IC90 [3, 15]: 1.3 nM
IC90 [3, 16]: > 108 nM
cytotoxicity against non-proliferating stationary cells [6]: essentially ineffective

Compound: Nc1ccn([C@@H]2O[C@H](CO)[C@@H](O)C2(F)F)c(=O)n1 [Gemcitabine]
MTD ([1]; gemcitabine IV, Q2D×4, HT-29 study): 36 mg/kg/inj
response rate ([7]; single agent gemcitabine 6 mg/kg/inj (so in the source)): 25%
response rate ([7]; single agent gemcitabine 24 mg/kg/inj): 0%

Compound: CC(=O)O[C@H]1C(=O)[C@@]2(C)[C@H]([C@H](OC(=O)c3ccccc3)[C@]3(O)C[C@H](OC(=O)[C@H](O)[C@@H](NC(=O)c4ccccc4)c4ccccc4)C(C)=C1C3(C)C)[C@]1(OC(C)=O)CO[C@@H]1C[C@@H]2O [Paclitaxel, paclitaxel]
Non-proliferative cells selectivity ratio (fold) [3]: <0.1 fold
cytotoxicity against non-proliferating stationary cells [3]: essentially ineffective; also recorded: completely non-toxic
fold more sensitive: cells in exponential growth (Day 2) vs stationary phase (Day 8) [3]: > 10 fold
IC90 [3, 15]: 17.8 nM
IC90 [3, 16]: > 162 nM
log cell kill [8]: 0.6 LCK
maximum tolerated regimen ([1]; Pat-7 study, paclitaxel iv q3d×3, Compound 2 ip q3d×3): 36 mg/kg
Tumor Response CR (%) [9]: 0%
Tumor Response LCK [9]: 2.5
Tumor Response PR (%) [9]: 20%
Tumor Response Cures (%) ([9]; Day 77): 0%
sensitivity of exponentially growing SAL2 cells to single agent [10]: relatively resistant

Compound: CC/C(=C(\c1ccccc1)c1ccc(OCCN(C)C)cc1)c1ccccc1 [Tamoxifen]
tumor remission / cures [11]: no cures were observed
effect on tumor growth ([11]; alone or combined): markedly more active
